{
  "source": "patent US20210393650A1",
  "about": "“Designing Treatments for Chemotherapy-Induced and Age-Related Menopausal Symptoms Using Combinations of Natural Products and Prescription Medications” (Tess Ventures, Inc., priority 2018, published 2021)",
  "origin": "cited, not measured here",
  "key": {"humans": {"tested_on": "humans", "conditions": "for effect on anxiety: humans, low to moderate doses"}, "postmenopausal women": {"tested_on": "postmenopausal women", "conditions": "human, in vivo"}, "CB1 receptor": {"tested_on": "CB1 receptor", "conditions": "centrally-mediated, through the CB1 receptor"}},
  "data": [
    {"smiles": "COc1cc(/C=C/C(=O)CC(=O)/C=C/c2ccc(O)c(OC)c2)ccc1O", "note": "[curcumin]", "values": [
      {"measurement": "tail skin temperature", "setting": "ovariectomized rat", "value": "significant suppression"}
    ]},
    {"smiles": "C=C(C)[C@@H]1CCC(C)=C[C@H]1c1c(O)cc(CCCCC)cc1O", "note": "[CBD, 2-[(1R,6R)-3-methyl-6-prop-1-en-2-ylcyclohex-2-en-1-yl]-5-pentyl-benzene-1,3-diol]", "values": [
      {"measurement": "effect on anxiety", "setting": "humans", "value": "anxiolytic effects"},
      {"measurement": "effect on insomnia", "setting": "humans; medium to high doses", "value": "sedative effect"}
    ]},
    {"smiles": "OCCOc1ccc(/C(=C(/CCCl)c2ccccc2)c2ccccc2)cc1", "note": "[ospemifene, Z-2-[4-(4-chloro-1,2-diphenyl-but-1-enyl)-phenoxy]ethanol]", "values": [
      {"measurement": "treatment of VVA symptoms versus local estrogen", "setting": "postmenopausal women", "value": "equivalent to or better than local estrogen"}
    ]},
    {"smiles": "CCCCCc1cc(O)c2c(c1)OC(C)(C)C1CCC(C)=CC21", "note": "(stereo not shown) [Δ^9-THC, 6,6,9-trimethyl-3-pentyl-6a,7,8,10a-tetrahydrobenzo[c]chromen-1-ol]", "values": [
      {"measurement": "effect on anxiety", "setting": "humans", "value": "anxiolytic effects"},
      {"measurement": "effect on sleep quality", "setting": "humans; insomnia", "value": "enhance short-term sleep quality"},
      {"measurement": "effect on body temperature", "setting": "CB1 receptor", "value": "hypothermic effect"}
    ]}
  ]
}
